Here are results for two compounds from PMC6747087, “Characterization of Tachyplesin Peptides and Their Cyclized Analogues to Improve Antimicrobial and Anticancer Properties” (International Journal of Molecular Sciences, 2019).

One data set can be described thus: in vitro. Conditions: human, 25% (v/v) human serum. How it is done: The serum stability assay was carried out as previously described with some modifications. Briefly, tachyplesin variants were incubated in 25% (v/v) human serum diluted in phosphate-buffered saline (PBS) at a final concentration of 50 µM at 37 °C. Triplicates were collected at time 0 h and 24 h and the serum proteins were precipitated with acetonitrile (1:3 ratio) supplemented with 3% TFA. Samples were kept on ice for 10 min before centrifugation at 17,000× g for 10 min at 4 °C. The peptide containing supernatant of each sample was harvested and quantified using RP-HPLC (10 to 45% solvent B, 1%/min gradient). The percentage of peptide stability in human serum was calculated by comparing the area of the peptide peak obtained at 24 h to that at time 0 h. A linear peptide containing 18 amino acid residues ([…]) was included as a control susceptible to proteolytic degradation.

Data set [1] in a line: Hemolytic activity against human red blood cells. Conditions: at 64 µM peptide, human RBCs, read-out: RBCs lysed (hemolysis). It is filed as cell-based. On the procedure:
(§1) A small amount of blood was collected from three healthy human donors. The blood was immediately diluted in PBS and centrifuged 4–5 times for 1 min at 4000 rpm to wash and separate the human red blood cells (RBCs). RBCs suspension (0.25% (v/v) in PBS) was incubated with peptides with two-fold serial dilutions of the peptide (highest concentration tested was 128 µM, and the lowest was 0.25 µM) in a 96-well plate. Melittin, a membrane disruptive peptide, was used as control. The plates were incubated for 1 h at 37 °C. After incubation, the plates were centrifuged for 5 min at 1000 rpm to pellet any non-lysed RBCs. A total of 100 µL of the supernatant were transferred to a new 96-well plate. The hemoglobin released into the supernatant from lysed cells was measured by absorbance at 415 nm using the Tecan infinite M1000Pro multiplate reader (Männedorf, Switzerland).

The test system of data set [2] is human red blood cells (RBCs). In words: Hemolytic activity against human red blood cells. It is filed as cell-based. Conditions: human RBCs 0.25% (v/v), 1 h, 37 °C; mean ± SEM. On the procedure:
as §1

The subject of another data set is E. coli ATCC 25922. In words: MIC against planktonic bacteria (resazurin). It is filed as cell-based, Escherichia coli. Conditions: Mueller Hinton Broth. How it is done: (§2) S. aureus ATCC 25923, S. aureus ATCC 6538, E. coli ATCC 25922, and E. coli DC2 CGSC 7139 were grown in Mueller Hinton Broth (Sigma Aldrich, St. Luis, USA). Bacterial cultures in the exponential growth phase were diluted to an OD600nm of 0.001 and seeded into 96-well plates. Peptides at different concentrations, starting at 64 µM and with two-fold serial dilutions (i.e., 64, 32, 16, 8, 4, 2, 1, 0.5, 0.25, 0.125 and 0.0625 µM), were incubated with cells; 0.05% (v/v) resazurin was added to the cultures the next day and the conversion to resorufin was measured after 1 h of incubation at 37 °C using a 565 nm excitation and 584 nm emission wavelength, as above.
A general note: Resazurin is reduced to fluorescent resorufin, in cell work by metabolically active cells.

The next data set has as its system E. coli DC2 CGSC 7139. The data set can be described thus: MIC against planktonic bacteria (resazurin). It is filed as cell-based, Escherichia coli. Conditions: Mueller Hinton Broth. How it is done: as §2
For the next data set, the system named is S. aureus ATCC 25923. In words: MIC against planktonic bacteria (resazurin). It is filed as cell-based, Staphylococcus aureus. Conditions: Mueller Hinton Broth. On the procedure:
as §2

The next data set deals with S. aureus ATCC 6538. The data set can be described thus: MIC against planktonic bacteria (resazurin). It is filed as cell-based, Staphylococcus aureus. Conditions: Mueller Hinton Broth. How it is done:
as §2

The nature of data set [3]: Activity against preformed biofilm (resazurin metabolic activity). It is filed as cell-based, Staphylococcus aureus. Conditions: 24 h preformed biofilm, 4 h peptide treatment, read-out: CC50 (reduction of 50% of the metabolically active cell population). How it is done:
(§3) S. aureus ATCC 6538 (1 × 10^6 cfu/mL) was cultured in Tryptic Soy Broth, containing 0.25% (w/v) glucose and incubated in 96-well microtiter flat-bottomed polystyrene plates for 24 h at 37 °C. Preformed biofilms were then washed with Mueller Hinton Broth to remove non-adherent cells. Two-fold serial dilutions of each peptide (highest concentration tested was 32 µM and lowest was 0.25 µM) were added to the biofilms for 4 h. Untreated 24 h preformed biofilms were used as a control. The metabolic activity of biofilm-embedded cells was determined using a resazurin reduction fluorometric assay as previously described.

Data set [4] in a line: Cytotoxicity assay (resazurin). It is filed as cell-based, Human. Conditions: ± SEM, n ≥ 3; for CC50 at 2 h: human. How it is done:
Cells were grown in cell culture flasks and incubated in a humidified atmosphere (5% CO2, 37 °C). The cancer cell lines HeLa and the control cell line HaCaT were grown in a DMEM medium supplemented with 1% (v/v) penicillin/streptomycin and 10% (v/v) fetal bovine serum (FBS). The cancer cell lines MM96L, HT144 and WM164 were grown in a RPMI medium supplemented with 1% (v/v) penicillin/[…], 10% (v/v) FBS, 20 mM L-glutamine, and 10 mM sodium pyruvate. Cell cultures were maintained by dilution upon reaching confluence, each 48–72 h. More information about the cell lines is available in Tables S2 and S3.
(§4) Cells were seeded into 96-well flat-bottom plates at 5 × 10^3 cells/well and incubated overnight. The medium was removed and replaced with 90 µL serum-free medium, 10 µL of 10x concentrated peptide solutions in PBS were added. PBS was added as blank and 0.1% (v/v) Triton X-100 was used to establish 100% of cell death. After 2 h incubation at 37 °C, 10 µL of filtered 0.05% (w/v) resazurin solution was added to each well [70]. Resazurin is converted to the pink and fluorescent compound resorufin by viable cells. After incubation overnight, the fluorescence intensity (λex = 565 nm and λem = 584 nm) was measured with the Tecan infinite M1000Pro multiplate reader (Männedorf, Switzerland).

The conditions of data set [5]: human serum, 2 h; cited from earlier work.
The conditions of data set [6]: mouse serum, 2 h; cited from earlier work.
Data set [7] deals with S. aureus ATCC 6538 biofilm. In words: Activity against preformed biofilm (resazurin metabolic activity). It is filed as cell-based, Staphylococcus aureus. Conditions: cells remaining metabolically active at 32 µM, the highest concentration tested. On the procedure:
as §3

For data set [8], the system named is melanoma cell lines MM96L, HT144 and WM164. The data set can be described thus: Cytotoxicity and selectivity (activity-toxicity index) for melanoma cell lines. It is filed as cell-based. Conditions: MHC inducing 10% (lower value) or 50% (higher value) cell death in human RBCs over median CC50 of melanoma lines. On the procedure:
as §4
The selectivity was calculated through the activity-toxicity index (ATI). ATI = MHC/MCC50, with MHC being the minimal concentration necessary to induce 10% or 50% cell death in human red blood cells and MCC50 the median of cytotoxic concentrations (CC50) of all tested melanoma cell lines.

Data set [9] relates to Pseudomonas aeruginosa biofilm. Set-up: method as in PMID 18022289. Conditions: rat model of ureteral stent infection; cited from earlier work.
The mark [10] stands for this setting: HT144, 2 h peptide in serum-free medium.
The mark [11] stands for this setting: WM164, 2 h peptide in serum-free medium.

Each structure is given as a SMILES string. Read-outs that look alike come from different tables or passages of the source. Residues, ends and D or L forms follow the SMILES beside them.

As a reminder, the amount remaining is the share of the starting amount still present when the sample was taken. High values mean less turnover, low ones more turnover. One may read the MIC as the lowest concentration that inhibits growth of the organism. Read a low MIC as a more susceptible organism. The term CC50 denotes the concentration that lowers cell viability or growth by half. Low readings indicate harm at low concentration, high ones better tolerance by the cells. With `[H][C@]12CSSC[C@]([H])(NC(=O)[C@]([H])([C@@H](C)CC)NC(=O)CNC(=O)[C@H](CCCNC(=N)N)NC(=O)[C@H](Cc3ccc(O)cc3)NC1=O)C(=O)N[C@@H](Cc1ccc(O)cc1)C(=O)N[C@@H](CCCNC(=N)N)C(=O)N[C@@H](CCCNC(=N)N)C(=O)N[C@H](C(=O)N[C@@H](CCCNC(=N)N)C(N)=O)CSSC[C@H](NC(=O)[C@H](Cc1c[nH]c3ccccc13)NC(=O)[C@@H](N)CCCCN)C(=O)N[C@@H](Cc1ccccc1)C(=O)N[C@@H](CCCNC(=N)N)C(=O)N[C@@H](C(C)C)C(=O)N2` [TI, Tachyplesin I] (HELM PEPTIDE1{K.W.C.F.R.V.C.Y.R.G.I.C.Y.R.R.C.R.[am]}$PEPTIDE1,PEPTIDE1,3:R3-16:R3|PEPTIDE1,PEPTIDE1,7:R3-12:R3$$$V2.0), the amount remaining at 24 h, 50 µM in the data set “in vitro” turned out to be 25%. In [1], the hemolysis came to 66%. The “HC50 (concentration required to induce 50% lysis in RBCs)” value in data set [2] is 34.9 ± 2.8 µM. The MIC lay in the range of 0.0625 to 0.5 µM with E. coli ATCC 25922, 0.5 to 1 µM in the data set with E. coli DC2 CGSC 7139, 1 to 4 µM against S. aureus ATCC 25923 and 4 to 8 µM with S. aureus ATCC 6538. Besides, the Concentration reducing biofilm metabolic activity by 50% in data set [3] was found to be 21.5 ± 2.2 µM. Moreover, the cytotoxic concentration (CC50) in data set [4] (setting [10]) worked out at 1700 ± 200 nM; in data set [4] (HaCaT non-cancerous control, 2 h peptide in serum-free medium) it was 11600 ± 1600 nM; in [4] (HeLa, 2 h peptide in serum-free medium), 13100 ± 1200 nM; in data set [4] (MM96L, 2 h peptide in serum-free medium) it was 1500 ± 100 nM; in data set [4] (setting [11]), 2500 ± 100 nM. Further, the stability in serum entry in data set [5] and in data set [6] was “completely stable” each time.

`CC[C@H](C)[C@@H]1NC(=O)CNC(=O)[C@H](CCCNC(=N)N)NC(=O)[C@H](Cc2ccc(O)cc2)NC(=O)[C@@H]2CSSC[C@H](NC1=O)C(=O)N[C@@H](Cc1ccc(O)cc1)C(=O)N[C@@H](CCCNC(=N)N)C(=O)N[C@@H](CCCCN)C(=O)N[C@H](C(=O)N[C@@H](CCCNC(=N)N)C(N)=O)CSSC[C@H](NC(=O)[C@H](Cc1c[nH]c3ccccc13)NC(=O)[C@@H](N)CCCCN)C(=O)N[C@@H](Cc1ccccc1)C(=O)N[C@@H](CCCNC(=N)N)C(=O)N[C@@H](C(C)C)C(=O)N2` [TIII, Tachyplesin III] (HELM PEPTIDE1{K.W.C.F.R.V.C.Y.R.G.I.C.Y.R.K.C.R.[am]}$PEPTIDE1,PEPTIDE1,3:R3-16:R3|PEPTIDE1,PEPTIDE1,7:R3-12:R3$$$V2.0; N-terminus assumed): the hemolysis at 1 h in [1] (red blood cells in PBS) came out at 41%. Also, in data set [2], the “HC50 (concentration required to induce 50% lysis in RBCs)” value came out at 86.4 ± 12.2 µM. The MIC in the data set on E. coli ATCC 25922 was 0.0625 to 0.5 µM; against E. coli DC2 CGSC 7139 it was 0.25 to 0.5 µM; with S. aureus ATCC 25923, 1 to 4 µM; in the data set on S. aureus ATCC 6538 it was 4 to 8 µM. The Concentration reducing biofilm metabolic activity by 50% at 4 h in [3] (Staphylococcus aureus, preformed S. aureus biofilm) was determined as 24.2 ± 4.1 µM. In addition, the “Metabolically Active Cells” value in [7] was determined as 43.3 ± 4.1%. In addition, the CC50 at 2 h was determined as 7300 ± 500 nM in data set [4] (HaCaT keratinocyte cells, HaCaT non-cancerous control, 2 h peptide in serum-free medium); 21700 ± 1100 nM in [4] (HeLa cervical cancer cells, 2 h peptide in serum-free medium); 1800 ± 100 nM in [4] (MM96L melanoma cells, 2 h peptide in serum-free medium); 2000 ± 100 nM in data set [4] (setting [10]); 1700 ± 100 nM in data set [4] (setting [11]). The “Melanoma Selectivity (activity-toxicity index, ATI = MHC/MCC50)” value in [8] is on record as 5–48. Moreover, in [9], the “prevention of biofilm formation” value is reported as “prevent the formation of a Pseudomonas aeruginosa biofilm”.
